Laboratory results as given in the supplement of paper PMC8671470.

Tested on: MOLM-13
Assay: cell viability (% survival relative to DMSO control, bortezomib = 0%); higher = less cytotoxic
Settings: 1 nM; 72 h
Outline: (§1)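 Reported values are percent survival from duplicate wells, averaged. Fifteen myeloid leukaemia cell lines were treated in 384-well plates with compounds at 1, 10, 100, 1000 or 10000 nM for 72 h at 37 °C in 5% CO2. Signals from CellTiter-Glo luminescence were scaled with vehicle as 100% and a 10 µM positive control as 0%.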

Point of comparison: `CN1CC(=O)N2[C@H](c3ccc4c(c3)OCO4)c3[nH]c4ccccc4c3C[C@@H]2C1=O` [Tadalafil], cell viability 106%. Against it:
- CC(C)(F)C[C@H](N[C@@H](c1ccc(-c2ccc(S(C)(=O)=O)cc2)cc1)C(F)(F)F)C(=O)NC1(C#N)CC1 [Odanacatib] — higher, 128%
- Nc1nc(O)c2c(CCc3ccc(C(=O)N[C@@H](CCC(=O)O)C(=O)O)cc3)c[nH]c2n1 [Pemetrexed] — lower, 95.6%
- C=C1NC(=O)c2cc(CN(C)c3ccc(C(=O)N[C@@H](CCC(=O)O)C(=O)O)s3)ccc2N1 [Raltitrexed] — higher, 118%
- CNC(=C[N+](=O)[O-])NCCSCc1ccc(CN(C)C)o1 [Ranitidine] — lower, 97.9%
- C#CCN[C@@H]1CCc2ccccc21 [Rasagiline] — lower, 93.9%
- NC(CCC(=O)NC(CSCc1ccc(Br)cc1)C(=O)NCC(=O)OC1CCCC1)C(=O)OC1CCCC1 (centres undefined) [S-para-Bromobenzylglutathione cyclopentyl diester] — higher, 113%
- COc1cc(C2Oc3cc(C4Oc5cc(O)cc(O)c5C(=O)C4O)ccc3OC2CO)ccc1O (centres undefined) [Silibinin] — lower, 99.8%
- Fc1ccc(CNc2ncnc3ccc(F)cc23)cc1 [Spautin 1] — lower, 93.1%
- Cn1c2cc(S(C)=O)sc2c2cnn(Cc3cccc(N)c3)c(=O)c21 (centres undefined) [TEPP-46] — higher, 136%
- CCCCCCCCCCCCCCOc1ccc(C(=O)O)o1 [TOFA] — lower, 102%

Same assay, conditions: 10 nM; 72 h

Point of comparison: `C#CCN[C@@H]1CCc2ccccc21` [Rasagiline], cell viability 109%. Against it:
- CC(C)(F)C[C@H](N[C@@H](c1ccc(-c2ccc(S(C)(=O)=O)cc2)cc1)C(F)(F)F)C(=O)NC1(C#N)CC1 [Odanacatib] — lower, 99.5%
- Nc1nc(O)c2c(CCc3ccc(C(=O)N[C@@H](CCC(=O)O)C(=O)O)cc3)c[nH]c2n1 [Pemetrexed] — lower, 101%
- C=C1NC(=O)c2cc(CN(C)c3ccc(C(=O)N[C@@H](CCC(=O)O)C(=O)O)s3)ccc2N1 [Raltitrexed] — higher, 145%
- CNC(=C[N+](=O)[O-])NCCSCc1ccc(CN(C)C)o1 [Ranitidine] — lower, 94.2%
- NC(CCC(=O)NC(CSCc1ccc(Br)cc1)C(=O)NCC(=O)OC1CCCC1)C(=O)OC1CCCC1 (centres undefined) [S-para-Bromobenzylglutathione cyclopentyl diester] — higher, 111%
- COc1cc(C2Oc3cc(C4Oc5cc(O)cc(O)c5C(=O)C4O)ccc3OC2CO)ccc1O (centres undefined) [Silibinin] — lower, 103%
- Fc1ccc(CNc2ncnc3ccc(F)cc23)cc1 [Spautin 1] — lower, 89.7%
- Cn1c2cc(S(C)=O)sc2c2cnn(Cc3cccc(N)c3)c(=O)c21 (centres undefined) [TEPP-46] — lower, 92.9%
- CCCCCCCCCCCCCCOc1ccc(C(=O)O)o1 [TOFA] — lower, 91.7%
- CN1CC(=O)N2[C@H](c3ccc4c(c3)OCO4)c3[nH]c4ccccc4c3C[C@@H]2C1=O [Tadalafil] — lower, 85.3%

Same assay, conditions: 100 nM; 72 h

Point of comparison: `NC(CCC(=O)NC(CSCc1ccc(Br)cc1)C(=O)NCC(=O)OC1CCCC1)C(=O)OC1CCCC1` (centres undefined) [S-para-Bromobenzylglutathione cyclopentyl diester], cell viability 92.6%. Against it:
- CC(C)(F)C[C@H](N[C@@H](c1ccc(-c2ccc(S(C)(=O)=O)cc2)cc1)C(F)(F)F)C(=O)NC1(C#N)CC1 [Odanacatib] — higher, 108%
- Nc1nc(O)c2c(CCc3ccc(C(=O)N[C@@H](CCC(=O)O)C(=O)O)cc3)c[nH]c2n1 [Pemetrexed] — higher, 93.5%
- C=C1NC(=O)c2cc(CN(C)c3ccc(C(=O)N[C@@H](CCC(=O)O)C(=O)O)s3)ccc2N1 [Raltitrexed] — lower, 5.74%
- CNC(=C[N+](=O)[O-])NCCSCc1ccc(CN(C)C)o1 [Ranitidine] — lower, 91.6%
- C#CCN[C@@H]1CCc2ccccc21 [Rasagiline] — higher, 111%
- COc1cc(C2Oc3cc(C4Oc5cc(O)cc(O)c5C(=O)C4O)ccc3OC2CO)ccc1O (centres undefined) [Silibinin] — higher, 103%
- Fc1ccc(CNc2ncnc3ccc(F)cc23)cc1 [Spautin 1] — higher, 122%
- Cn1c2cc(S(C)=O)sc2c2cnn(Cc3cccc(N)c3)c(=O)c21 (centres undefined) [TEPP-46] — lower, 91.9%
- CCCCCCCCCCCCCCOc1ccc(C(=O)O)o1 [TOFA] — higher, 98.8%
- CN1CC(=O)N2[C@H](c3ccc4c(c3)OCO4)c3[nH]c4ccccc4c3C[C@@H]2C1=O [Tadalafil] — higher, 98.4%

Same assay, conditions: 1000 nM; 72 h

Point of comparison: `Fc1ccc(CNc2ncnc3ccc(F)cc23)cc1` [Spautin 1], cell viability 108%. Against it:
- CC(C)(F)C[C@H](N[C@@H](c1ccc(-c2ccc(S(C)(=O)=O)cc2)cc1)C(F)(F)F)C(=O)NC1(C#N)CC1 [Odanacatib] — lower, 96.4%
- Nc1nc(O)c2c(CCc3ccc(C(=O)N[C@@H](CCC(=O)O)C(=O)O)cc3)c[nH]c2n1 [Pemetrexed] — lower, 4.73%
- C=C1NC(=O)c2cc(CN(C)c3ccc(C(=O)N[C@@H](CCC(=O)O)C(=O)O)s3)ccc2N1 [Raltitrexed] — lower, 1.25%
- CNC(=C[N+](=O)[O-])NCCSCc1ccc(CN(C)C)o1 [Ranitidine] — lower, 102%
- C#CCN[C@@H]1CCc2ccccc21 [Rasagiline] — lower, 95.9%
- NC(CCC(=O)NC(CSCc1ccc(Br)cc1)C(=O)NCC(=O)OC1CCCC1)C(=O)OC1CCCC1 (centres undefined) [S-para-Bromobenzylglutathione cyclopentyl diester] — lower, 90%
- COc1cc(C2Oc3cc(C4Oc5cc(O)cc(O)c5C(=O)C4O)ccc3OC2CO)ccc1O (centres undefined) [Silibinin] — lower, 106%
- Cn1c2cc(S(C)=O)sc2c2cnn(Cc3cccc(N)c3)c(=O)c21 (centres undefined) [TEPP-46] — higher, 123%
- CCCCCCCCCCCCCCOc1ccc(C(=O)O)o1 [TOFA] — lower, 82.7%
- CN1CC(=O)N2[C@H](c3ccc4c(c3)OCO4)c3[nH]c4ccccc4c3C[C@@H]2C1=O [Tadalafil] — lower, 97.9%

Same assay, conditions: 10000 nM; 72 h

Point of comparison: `NC(CCC(=O)NC(CSCc1ccc(Br)cc1)C(=O)NCC(=O)OC1CCCC1)C(=O)OC1CCCC1` (centres undefined) [S-para-Bromobenzylglutathione cyclopentyl diester], cell viability 89.2%. Against it:
- CC(C)(F)C[C@H](N[C@@H](c1ccc(-c2ccc(S(C)(=O)=O)cc2)cc1)C(F)(F)F)C(=O)NC1(C#N)CC1 [Odanacatib] — higher, 117%
- Nc1nc(O)c2c(CCc3ccc(C(=O)N[C@@H](CCC(=O)O)C(=O)O)cc3)c[nH]c2n1 [Pemetrexed] — lower, 1.7%
- C=C1NC(=O)c2cc(CN(C)c3ccc(C(=O)N[C@@H](CCC(=O)O)C(=O)O)s3)ccc2N1 [Raltitrexed] — lower, 1.81%
- CNC(=C[N+](=O)[O-])NCCSCc1ccc(CN(C)C)o1 [Ranitidine] — higher, 117%
- C#CCN[C@@H]1CCc2ccccc21 [Rasagiline] — higher, 111%
- COc1cc(C2Oc3cc(C4Oc5cc(O)cc(O)c5C(=O)C4O)ccc3OC2CO)ccc1O (centres undefined) [Silibinin] — higher, 103%
- Fc1ccc(CNc2ncnc3ccc(F)cc23)cc1 [Spautin 1] — lower, 50.9%
- Cn1c2cc(S(C)=O)sc2c2cnn(Cc3cccc(N)c3)c(=O)c21 (centres undefined) [TEPP-46] — higher, 94.3%
- CCCCCCCCCCCCCCOc1ccc(C(=O)O)o1 [TOFA] — lower, 87%
- CN1CC(=O)N2[C@H](c3ccc4c(c3)OCO4)c3[nH]c4ccccc4c3C[C@@H]2C1=O [Tadalafil] — lower, 73.3%

Tested on: K-562
Assay: as above
Settings: 1 nM; 72 h
Outline: as §1

Point of comparison: `COc1cc(C2Oc3cc(C4Oc5cc(O)cc(O)c5C(=O)C4O)ccc3OC2CO)ccc1O` (centres undefined) [Silibinin], cell viability 95%. Against it:
- CC(C)(F)C[C@H](N[C@@H](c1ccc(-c2ccc(S(C)(=O)=O)cc2)cc1)C(F)(F)F)C(=O)NC1(C#N)CC1 [Odanacatib] — higher, 101%
- Nc1nc(O)c2c(CCc3ccc(C(=O)N[C@@H](CCC(=O)O)C(=O)O)cc3)c[nH]c2n1 [Pemetrexed] — higher, 95.8%
- C=C1NC(=O)c2cc(CN(C)c3ccc(C(=O)N[C@@H](CCC(=O)O)C(=O)O)s3)ccc2N1 [Raltitrexed] — higher, 104%
- CNC(=C[N+](=O)[O-])NCCSCc1ccc(CN(C)C)o1 [Ranitidine] — higher, 108%
- C#CCN[C@@H]1CCc2ccccc21 [Rasagiline] — higher, 103%
- NC(CCC(=O)NC(CSCc1ccc(Br)cc1)C(=O)NCC(=O)OC1CCCC1)C(=O)OC1CCCC1 (centres undefined) [S-para-Bromobenzylglutathione cyclopentyl diester] — higher, 105%
- Fc1ccc(CNc2ncnc3ccc(F)cc23)cc1 [Spautin 1] — higher, 103%
- Cn1c2cc(S(C)=O)sc2c2cnn(Cc3cccc(N)c3)c(=O)c21 (centres undefined) [TEPP-46] — higher, 112%
